In patent publication US8519110B2, “mRNA cap analogs” (Board of Supervisors of Louisiana State University And …, priority 2008, dated 2013):

How the values were obtained:
eIF4E = eIF4E (Mus musculus, UniProt P63073); experiment: Binding affinity of cap analogs to eIF4E by fluorescence titration; details: equilibrium association constant; for Cap analog-eIF4E affinity (KAS): Table 3; for Cap analog/eIF4E affinity (KAS): 20 °C, pH 7.2, ionic strength 150 mM
Summary of the method: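 Cap analogue was titrated into 0.1 or 0.2 μM eIF4E at 20.0° C, in 50 mM HEPES/KOH pH 7.2 with 0.5 mM EDTA and 1 mM DTT, ionic strength 150 mM (KCl). Fluorescence quenching was read at excitation 280 or 295 nm and emission 337 nm, corrected for dilution and inner filter. Kas is a weighted average of 3–10 titration fits.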

[1] = Chemical stability in solution and on storage; assay type: physicochemical
Experimental: FIG. 5 depicts the synthesis of m2^7,2′-OGppSepG. The selenophosphate (PSeO3^−3) was prepared by a modification of the method described in R. Glass et al., “Selenophosphate,” Meth. Enzymol., vol. 252, pp. 309-315 (1995). Trimethylsilyl phosphite was treated with selenium in pyridine to give trimethylsilyl selenophosphate, which was then desilylated by methanol in the presence of triethylamine to give the selenophosphate triethylammonium salt. This compound was coupled with the imidazolide derivative of 7,2′-O-dimethylguanosine 5′-monophosphate (m2^7,2′-OGMP-Im) to give 7,2′-O-dimethylguanosine 5′-O-(2-selenodiphosphate) (m2^7,2′-OGDPβSe). […] The reaction was very rapid; essentially 100% conversion of m2^7,2′-OGMP-Im into m2^7,2′-OGDPβSe was observed by RP HPLC after 15 min. […] Thus, care was taken to maintain the pH at 7 or above during purification of m2^7,2′-OGDPβSe, which allowed the product to be isolated with 80% yield after ion-exchange chromatography. The m2^7,2′-OGDPβSe was then coupled with the imidazolide derivative of GMP in the presence of excess ZnCl2. Two peaks were observed by RP HPLC, corresponding to two m2^7,2′-OGppSepG diastereomers, which were designated D1 and D2 according to their elution order. However, the coupling proceeded slowly, and complete disappearance of m2^7,2′-OGDPβSe took about two days. The extended reaction time allowed partial hydrolysis of m2^7,2′-OGDPβSe to m2^7,2′-OGMP, and only a moderate reaction yield (40% conversion by HPLC, 25% isolated). The diastereomeric mixture of m2^7,2′-OGppSepG after isolation by ion-exchange chromatography was successfully resolved into pure diastereomers by RP HPLC. The products were characterized by mass spectrometry, ^1H NMR, and ^31P NMR to confirm structures and homogeneity.

[2] = tested on: rabbit reticulocyte lysate system; experiment: In vitro translation efficiency of capped luciferase mRNA, method I transcripts; assay type: biochemical; details: for Translation efficiency in comparison with m^7GpppG-LUC mRNA, Experiment No. 2: experiment 2; for Translation efficiency in comparison with m^7GpppG-LUC mRNA, Experiment No. 3: experiment 3; for Translation efficiency in comparison with m^7GpppG-LUC mRNA, Experiment No. 4: experiment 4; for Translation efficiency in comparison with m^7GpppG-LUC mRNA, Mean: mean of experiments; for In vitro translational efficiency, method I: relative to m^7GpppG-capped luciferase mRNA = 1.0
Experimental: A DNA template for in vitro transcription was synthesized by PCR from the plasmid SP6p-5′UTR β-globin-LUCiferase. The template contained the SP6 promoter followed by the 5′-UTR sequence of rabbit β-globin mRNA and the entire firefly luciferase mRNA coding region. A typical in vitro transcription reaction mixture (50 μl) contained SP6 transcription buffer (Fermentas, cat. no. EP0131), 2 μg of DNA template, 2 U/μl RiboLock Ribonuclease Inhibitor (Fermentas), 2 mM each of ATP, CTP, and UTP, 0.1 mM GTP, and 1 mM dinucleotide cap analog. The reaction mixture was incubated at 37° C. for 5 min before the addition of SP6 RNA polymerase (Fermentas) to a final concentration of 2 U/μl. After 30 min of incubation at 37° C., GTP was added to a final concentration of 1 mM, and the reaction continued for an additional 90 min. The reaction mixtures were then treated with 1 U of DNase RQ1 (RNAse-free, Promega) per μg of template DNA in transcription buffer at 37° C. for 20 min. RNA transcripts were purified on DEPC-treated Sephadex G-50 spin columns (Pharmacia). The integrity of transcripts was confirmed by electrophoresis on a non-denaturating, 1% agarose gel. Concentrations were determined spectrophotometrically. The transcripts were stored at −80° C. until used.
A micrococcal nuclease-treated rabbit reticulocyte lysate system (Flexi Rabbit Reticulocyte Lysate System, Promega) was used for in vitro translation. Translation reactions were performed in 10 μl for 60 min at 30° C. A typical reaction mixture contained 40% reticulocyte lysate, the 20 “standard” amino acids (0.01 mM each), MgCl2 (1.2 mM), potassium acetate (170 mM), and mRNA (five different concentrations of each transcript, ranging from 0.25 to 4 μg/ml). Luciferase activity was measured in a luminometer (Glomax, Promega). Linear regression was used to fit the data points (luciferase activity versus concentration of mRNA transcript), and translational efficiency was defined as the slope of this line. The relative translational efficiencies of the test mRNAs were compared to that of m^7GpppG-capped luciferase mRNA, the latter being defined as 1.0.

Chain of eIF4E (P63073 28-217 limits assumed): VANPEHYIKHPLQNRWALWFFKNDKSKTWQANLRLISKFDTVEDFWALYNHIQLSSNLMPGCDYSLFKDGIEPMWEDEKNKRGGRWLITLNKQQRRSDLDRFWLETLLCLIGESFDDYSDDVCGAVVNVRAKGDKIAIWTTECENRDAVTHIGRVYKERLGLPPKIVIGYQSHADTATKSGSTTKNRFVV

Cap analog-eIF4E affinity (KAS) (eIF4E) [μM^−1]	Stability in aqueous solution [1]	Cap analog/eIF4E affinity (KAS) (eIF4E) [μM^−1]	Translation efficiency in comparison with m^7GpppG-LUC mRNA, Experiment No. 2 [2]	Translation efficiency in comparison with m^7GpppG-LUC mRNA, Experiment No. 3 [2]	Translation efficiency in comparison with m^7GpppG-LUC mRNA, Experiment No. 4 [2]	Translation efficiency in comparison with m^7GpppG-LUC mRNA, Mean [2]	In vitro translational efficiency, method I [2]	Translation efficiency in comparison with m^7GpppG-LUC mRNA, Experiment No. 1 ([2]; experiment 1)	Compound
19.0 ± 0.5	stable in aqueous solution	–	–	–	–	–	–	–	CO[C@@H]1[C@H](O)[C@@H](COP(=O)(O)OP(O)(=[Se])OP(=O)(O)OC[C@H]2O[C@@H](n3cnc4c(=O)[nH]c(N)nc43)[C@H](O)[C@@H]2O)O[C@H]1n1c[n+](C)c2c(=O)[nH]c(N)nc21 (single isomer, unassigned) [m2^7,2′-OGppSepG (D2), m2^7,2′-OGppSepG]
–	–	11.1 ± 0.2	2.63	2.91	2.89	2.81	2.81 ± 0.16	–	m^7GppBH3pm^7G
9.4 ± 0.4	–	9.4 ± 0.4	1.00	1.00	1.00	1.00	1.00	1.00	Cn1c[n+]([C@@H]2O[C@H](COP(=O)(O)OP(=O)(O)OP(=O)(O)OC[C@H]3O[C@@H](n4cnc5c(=O)[nH]c(N)nc54)[C@H](O)[C@@H]3O)[C@@H](O)[C@H]2O)c2nc(N)[nH]c(=O)c21 [m^7GpppG, m^7G(5′)ppp(5′)G, reference compound]
38.5 ± 0.7	stable in aqueous solution	–	–	–	–	–	–	–	CO[C@@H]1[C@H](O)[C@@H](COP(=O)(O)OP(O)(=[Se])OP(=O)(O)OC[C@H]2O[C@@H](n3cnc4c(=O)[nH]c(N)nc43)[C@H](O)[C@@H]2O)O[C@H]1n1c[n+](C)c2c(=O)[nH]c(N)nc21 (single isomer, unassigned) [m2^7,2′-OGppSepG (D1), m2^7,2′-OGppSepG]
